The values that follow come from patent US20160046618A1, “Cyclopropyl Fused Thiazin-2-Amine Compounds as Beta-Secretase Inhibitors and Methods of Use” (AMGEN INC., priority 2014, published 2016).

One test has as its target Recombinant Cat D (Homo sapiens (Human), UniProt P07339). Briefly: In vitro enzymatic Cathepsin D (Cat D) FRET assay. The settings on record: read-out: IC50 IP (μM) CatD. The format is biochemical. An outline of the steps: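 Human Cat D expressed in CHO cells was incubated for one hour in 0.05 M citrate pH 3.5, 5 mM CHAPS, 10% DMSO final, with 20 nM quenched FRET peptide substrate. Reactions were stopped with Tris buffer raising pH to neutrality. Cleavage was read as fluorescence at excitation 500 nm, emission 580 nm.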

Test [1] concerns Aβ40 in conditioned medium of cells stably expressing Amyloid Precursor Protein (APP). Briefly: In vitro BACE-1 cell-based assay (Aβ40 sandwich ELISA). The conditions noted are these: read-out: IC50 IP (μM) BACE1 cell. An outline of the steps: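 APP-stable cells, pre-cultured 24 h at 37° C in DMEM/10% FBS, were treated 24 h with compound in a 10-point series starting at 100 μM or 10 μM (0.1% DMSO final). Secreted Aβ40 in conditioned medium was measured by pAb40/biotin-6E10 sandwich ELISA with Europium time-resolved fluorescence; IC50 from percent inhibition versus concentration.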

A further test concerns the target human recombinant BACE2 (Homo sapiens (Human), UniProt Q9Y5Z0). Put plainly: In vitro enzymatic BACE2 FRET assay. The format is biochemical. The settings on record: read-out: IC50 IP (μM) BACE2 enzyme. Summed up:
(§1)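 FRET cleavage assay using Ni-NTA-purified recombinant protease and 50 nM quenched peptide substrate, 1 h. Stopped by neutralising with Tris; fluorescence at 488/590 nm.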

The target in another test is human recombinant BACE1 (Homo sapiens (Human), UniProt P56817). Briefly: In vitro enzymatic BACE1 FRET assay. The format is biochemical. The conditions noted are these: read-out: IC50 IP (μM) BACE1 enzyme. An outline of the steps:
as §1

human recombinant BACE1, sequence (P56817 46-501): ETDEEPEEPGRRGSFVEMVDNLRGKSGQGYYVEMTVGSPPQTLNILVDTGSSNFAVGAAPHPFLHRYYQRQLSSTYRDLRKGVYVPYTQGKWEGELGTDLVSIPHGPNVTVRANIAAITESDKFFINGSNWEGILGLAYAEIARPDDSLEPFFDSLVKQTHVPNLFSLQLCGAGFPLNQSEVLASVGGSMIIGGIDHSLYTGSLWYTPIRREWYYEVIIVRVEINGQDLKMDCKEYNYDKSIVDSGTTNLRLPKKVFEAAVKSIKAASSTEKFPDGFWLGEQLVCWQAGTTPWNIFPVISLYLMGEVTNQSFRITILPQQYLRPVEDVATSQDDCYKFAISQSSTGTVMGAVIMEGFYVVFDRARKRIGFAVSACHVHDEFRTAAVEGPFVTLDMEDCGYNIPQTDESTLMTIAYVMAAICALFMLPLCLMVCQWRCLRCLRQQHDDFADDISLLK
Recombinant Cat D, sequence (P07339 65-412): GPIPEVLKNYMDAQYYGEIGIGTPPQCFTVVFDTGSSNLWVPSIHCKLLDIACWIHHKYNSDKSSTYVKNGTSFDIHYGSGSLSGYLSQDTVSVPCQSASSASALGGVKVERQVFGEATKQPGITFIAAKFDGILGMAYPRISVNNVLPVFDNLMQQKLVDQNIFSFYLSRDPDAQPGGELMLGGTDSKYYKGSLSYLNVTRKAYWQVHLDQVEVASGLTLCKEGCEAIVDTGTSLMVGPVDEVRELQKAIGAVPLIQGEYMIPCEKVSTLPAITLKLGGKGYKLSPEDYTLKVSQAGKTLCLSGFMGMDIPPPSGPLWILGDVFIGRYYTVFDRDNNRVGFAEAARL
human recombinant BACE2, sequence (Q9Y5Z0 63-518): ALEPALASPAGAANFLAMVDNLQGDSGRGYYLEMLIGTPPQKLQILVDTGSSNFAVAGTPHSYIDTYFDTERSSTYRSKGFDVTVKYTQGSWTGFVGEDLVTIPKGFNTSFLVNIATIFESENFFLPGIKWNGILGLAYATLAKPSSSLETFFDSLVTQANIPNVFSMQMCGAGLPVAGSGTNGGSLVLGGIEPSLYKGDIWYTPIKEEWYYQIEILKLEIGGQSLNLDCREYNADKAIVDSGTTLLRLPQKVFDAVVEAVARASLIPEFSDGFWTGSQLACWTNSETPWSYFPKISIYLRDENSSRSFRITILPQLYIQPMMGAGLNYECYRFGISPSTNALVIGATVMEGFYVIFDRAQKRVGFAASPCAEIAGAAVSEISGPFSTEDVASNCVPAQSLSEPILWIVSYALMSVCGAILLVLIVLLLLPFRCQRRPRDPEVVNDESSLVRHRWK

Regarding `COC[C@]12C[C@H]1[C@@](C)(c1cc(NC(=O)c3cnc(OCC(F)(F)C(F)F)cn3)cc(F)c1F)N=C(N)S2` [Example 734, N-(3-((1S,5S,6S)-3-amino-1-(methoxymethyl)-5-methyl-2-thia-4-azabicyclo[4.1.0]hept-3-en-5-yl)-4,5-difluorophenyl)-5-(2,2,3,3-tetrafluoropropoxy)-2-pyrazinecarboxamide], the concentration for half-maximal inhibition (IC50) at Recombinant Cat D stood at 2110 µM; in test [1], 0.017 µM; on human recombinant BACE2, 0.188 µM; on human recombinant BACE1 it was 0.00173 µM.
In the case of `C#CCOc1cnc(C(=O)Nc2cc(F)c(F)c([C@@]3(C)N=C(N)S[C@@]4(CNC(C)=O)C[C@H]43)c2)cn1` [Example 1042, N-(3-((1S,5S,6S)-1-(acetamidomethyl)-3-amino-5-methyl-2-thia-4-azabicyclo[4.1.0]hept-3-en-5-yl)-4,5-difluorophenyl)-5-(prop-2-yn-1-yloxy)pyrazine-2-carboxamide], the half-inhibitory concentration (IC50) at Recombinant Cat D turned out to be 55.6 µM; in test [1], 0.00621 µM; on human recombinant BACE2, 0.0159 µM; on human recombinant BACE1 it was 0.000317 µM.
Take `COC[C@]12C[C@H]1[C@@](C)(c1cc(NC(=O)c3ccc(Cl)cn3)ccc1F)N=C(N)S2` [Example 833, N-(3-((1S,5S,6S)-3-amino-1-(methoxymethyl)-5-methyl-2-thia-4-azabicyclo[4.1.0]hept-3-en-5-yl)-4-fluorophenyl)-5-chloro-2-pyridinecarboxamide]: the IC50 is greater than 400 µM at Recombinant Cat D, 0.0137 µM in test [1], 0.0061 µM on human recombinant BACE2 and 0.0041 µM on human recombinant BACE1.
The like results for `Cc1nnc(COc2cnc3c(Nc4cc(F)c(F)c([C@@]5(C)N=C(N)S[C@@]6(C(F)F)C[C@@H]56)c4)nccc3n2)s1` [Example 889, N-(3-((1S,5S,6S)-3-amino-1-(difluoromethyl)-5-methyl-2-thia-4-azabicyclo[4.1.0]hept-3-en-5-yl)-4,5-difluorophenyl)-2-((5-methyl-1,3,4-thiadiazol-2-yl)methoxy)pyrido[3,4-b]pyrazin-5-amine] were, in that order, 306 µM, 0.252 µM, 1.41 µM and 0.0418 µM.
As for `C#CCOc1cnc(C(=O)Nc2ccc(F)c([C@@]3(C)N=C(N)S[C@@]4(C(=O)NC(C)(C)C)C[C@H]43)c2)cn1` [Example 798, (1S,5S,6S)-3-amino-N-tert-butyl-5-(2-fluoro-5-(((5-(2-propyn-1-yloxy)-2-pyrazinyl)carbonyl)amino)phenyl)-5-methyl-2-thia-4-azabicyclo[4.1.0]hept-3-ene-1-carboxamide], the IC50 at Recombinant Cat D is 4.72 µM; in test [1], 0.000715 µM; at human recombinant BACE2, 0.0272 µM; on human recombinant BACE1, 0.000294 µM.
In the case of `C[C@]1(c2cc(Nc3nccc4cc(C#N)cnc34)cnc2F)N=C(N)S[C@@]2(C(F)F)C[C@@H]12` [Example 657, 8-((5-((1S,5S,6S)-3-amino-1-(difluoromethyl)-5-methyl-2-thia-4-azabicyclo[4.1.0]hept-3-en-5-yl)-6-fluoro-3-pyridinyl)amino)-1,7-naphthyridine-3-carbonitrile], the half-maximal inhibitory concentration (IC50) turned out to be 306 µM at Recombinant Cat D, 0.00533 µM in test [1], 0.00303 µM at human recombinant BACE2 and 0.00369 µM at human recombinant BACE1.
The like results for `COc1cnc2c(Nc3cc(F)c(F)c([C@@]4(C)N=C(N)S[C@@]5(C(F)F)C[C@@H]45)c3)nccc2n1` [Example 895, N-(3-((1S,5S,6S)-3-amino-1-(difluoromethyl)-5-methyl-2-thia-4-azabicyclo[4.1.0]hept-3-en-5-yl)-4,5-difluorophenyl)-2-methoxypyrido[3,4-b]pyrazin-5-amine] were, in that order, 167 µM, 0.113 µM, 0.0254 µM and 0.0053 µM.
Regarding `C#CCOc1cnc(C(=O)Nc2cc(C)c(F)c([C@@]3(C)N=C(N)S[C@@]4(C(F)F)C[C@@H]34)c2)cn1` [Example 1072, N-(3-((1S,5S,6S)-3-amino-1-(difluoromethyl)-5-methyl-2-thia-4-azabicyclo[4.1.0]hept-3-en-5-yl)-4-fluoro-5-methylphenyl)-5-(prop-2-yn-1-yloxy)pyrazine-2-carboxamide], the IC50 is 143 µM on Recombinant Cat D, 0.000345 µM in test [1], 0.00983 µM on human recombinant BACE2 and 0.00032 µM on human recombinant BACE1.
Regarding `C#CCOc1cnc(C(=O)Nc2ccc(F)c([C@@]3(CF)N=C(N)S[C@@]4(c5cnco5)C[C@@H]34)c2)cn1` [Example 780, N-(3-((1S,5S,6S)-3-amino-5-(fluoromethyl)-1-(1,3-oxazol-5-yl)-2-thia-4-azabicyclo[4.1.0]hept-3-en-5-yl)-4-fluorophenyl)-5-(2-propyn-1-yloxy)-2-pyrazinecarboxamide], the IC50 is 116 µM at Recombinant Cat D, 0.00126 µM in test [1], less than 0.0061 µM at human recombinant BACE2 and 0.00022 µM on human recombinant BACE1.
As for `C[C@]1(c2cc(NC(=O)c3cnc(OCC(F)(F)F)cn3)ccc2F)N=C(N)S[C@@]2(C(=O)N3CCCC3)C[C@H]21` [Example 634, N-(3-((1S,5S,6S)-3-amino-5-methyl-1-(1-pyrrolidinylcarbonyl)-2-thia-4-azabicyclo[4.1.0]hept-3-en-5-yl)-4-fluorophenyl)-5-(2,2,2-trifluoroethoxy)-2-pyrazinecarboxamide], the IC50 was 660 µM on Recombinant Cat D, 0.000616 µM in test [1], 0.00951 µM on human recombinant BACE2 and 0.000758 µM on human recombinant BACE1.
Take `COC[C@]12C[C@H]1[C@@](C)(c1cc(NC(=O)c3cnc(OCC(C)C)cn3)ccc1F)N=C(N)S2` [Example 1056, N-(3-((1S,5S,6S)-3-amino-1-(methoxymethyl)-5-methyl-2-thia-4-azabicyclo[4.1.0]hept-3-en-5-yl)-4-fluorophenyl)-5-(2-methylpropoxy)-2-pyrazinecarboxamide]: the IC50 worked out at 1240 µM at Recombinant Cat D, 0.018 µM in test [1], 0.317 µM on human recombinant BACE2 and 0.0014 µM on human recombinant BACE1.
In the case of `C[C@]1(c2cc(NC(=O)c3cnc(OCc4ncco4)cn3)ccc2F)N=C(N)S[C@@]2(C(=O)NC3CC3)C[C@H]21` [Example 799, (1S,5S,6S)-3-amino-N-cyclopropyl-5-(2-fluoro-5-(((5-(1,3-oxazol-2-ylmethoxy)-2-pyrazinyl)carbonyl)amino)phenyl)-5-methyl-2-thia-4-azabicyclo[4.1.0]hept-3-ene-1-carboxamide], the IC50 on Recombinant Cat D worked out at 349 µM; in test [1], 0.00075 µM; at human recombinant BACE2, 0.015 µM; at human recombinant BACE1, 0.000382 µM.
Taken in the same sequence, the figures for `[2H]C([2H])([2H])C#CC([2H])([2H])Oc1cnc2c(Nc3cnc(F)c([C@@]4(C)N=C(N)S[C@@]5(CF)C[C@H]54)c3)nccc2n1` [Example 613, N-(5-((1S,5S,6S)-3-amino-1-(fluoromethyl)-5-methyl-2-thia-4-azabicyclo[4.1.0]hept-3-en-5-yl)-6-fluoro-3-pyridinyl)-2-((~2~H_5_)-2-butyn-1-yloxy)pyrido[3,4-b]pyrazin-5-amine] were 709 µM, 0.00098 µM, 0.0123 µM and 0.000555 µM.
